From US10131652B2, “Pyrimidinyloxy benzene derivatives as herbicides” (E. I. DU PONT DE NEMOURS AND COMPANY, priority 2014, dated 2018)
Like-named read-outs stand apart in the source and are kept apart here.

Legend:
Format in all cases: in vivo
[1] = tested on: large (Lg) crabgrass (Digitaria sanguinalis); test: Test B pre-/postemergence plant response; details: Digitaria sanguinalis, 240 h, read-out: Plant response rating, Crabgrass, Large; for pest or weed control at 125 g/ha: 125 g ai/ha; for pest or weed control at 500 g/ha: 500 g ai/ha
Summary of the method: (§1)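 Visual injury rating, 0 (no effect) to 100 (complete control), vs untreated controls after ~10 d greenhouse. Pre: directed soil spray after planting in loam/sand. Post: plants 2–10 cm, 1–2 leaf stage. Compound in non-phytotoxic solvent plus surfactant.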

[2] = tested on: morningglory (Ipomoea spp.); test: Test B pre-/postemergence plant response; details: Ipomoea, 240 h, read-out: Plant response rating, Morningglory; for pest or weed control at 125 g/ha: 125 g ai/ha; for pest or weed control at 500 g/ha: 500 g ai/ha
Summary of the method: as §1

[3] = tested on: velvetleaf (Abutilon theophrasti); test: Test B pre-/postemergence plant response; details: Abutilon theophrasti, 240 h, read-out: Plant response rating, Velvetleaf; for pest or weed control at 125 g/ha: 125 g ai/ha; for pest or weed control at 500 g/ha: 500 g ai/ha
Summary of the method: as §1

[4] = tested on: fall panicum (Panicum dichotomiflorum); test: Test F pre-/postemergence plant response; details: Panicum dichotomiflorum, scale 0 to 100, read-out: Plant response rating, Panicum, Fall
Summary of the method: (§2)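 Seeds were sown in silt loam and sprayed preemergence; in parallel, plants at 2–18 cm (1- to 4-leaf) received postemergence sprays. Test chemicals were in a non-phytotoxic solvent with surfactant. After 14–21 days in the greenhouse, injury was rated visually against controls on a 0–100 scale (100 = complete control).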

[5] = tested on: field bindweed (Convolvulus arvensis); test: Test F pre-/postemergence plant response; details: Convolvulus arvensis, scale 0 to 100, read-out: Plant response rating, Field Bindweed
Summary of the method: as §2

[6] = tested on: giant foxtail (Setaria faberii); test: Test F pre-/postemergence plant response; details: Setaria faberi, pre-emergence, scale 0 to 100, read-out: Plant response rating, Foxtail, Giant
Summary of the method: as §2

kochia (Kochia scoparia) = test: Test F pre-/postemergence plant response; details: Bassia scoparia, pre-emergence, scale 0 to 100, read-out: Plant response rating, Kochia
Summary of the method: as §2

[7] = tested on: large (Lg) crabgrass (Digitaria sanguinalis); test: Test F pre-/postemergence plant response; details: Digitaria sanguinalis, pre-emergence, scale 0 to 100, read-out: Plant response rating, Crabgrass, Large
Summary of the method: as §2

[8] = tested on: morningglory (Ipomoea coccinea); test: Test F pre-/postemergence plant response; details: Ipomoea, pre-emergence, scale 0 to 100, read-out: Plant response rating, Morningglory
Summary of the method: as §2

[9] = tested on: nightshade (eastern black nightshade, Solanum ptycanthum); test: Test F pre-/postemergence plant response; details: Solanum, pre-emergence, scale 0 to 100, read-out: Plant response rating, Nightshade
Summary of the method: as §2

[10] = tested on: waterhemp_RES1 (ALS & Triazine resistant common waterhemp, Amaranthus rudis); test: Test F postemergence plant response; details: scale 0 to 100
Summary of the method: (§3)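 Postemergence application to plants 2–18 cm tall (1- to 4-leaf stage), then held in greenhouse 14–21 days. Visual rating against untreated controls on a 0–100 scale (0 no effect, 100 complete control).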

[11] = tested on: waterhemp_RES2 (ALS & HPPD resistant common waterhemp, Amaranthus rudis); test: Test F postemergence plant response; details: scale 0 to 100
Summary of the method: as §3

[12] = post-emergence, postemergence, 0 to 100 scale, 0 no effect, 100 complete control
[13] = post-emergence, Postemergence, 0 to 100 scale (0 no effect, 100 complete control)
[14] = pre-emergence, Preemergence, 0 to 100 scale where 0 is no effect and 100 is complete control
[15] = post-emergence, 8 g ai/ha Postemergence
[16] = post-emergence, 16 g ai/ha Postemergence
[17] = post-emergence, 31 g ai/ha Postemergence
[18] = post-emergence, 62 g ai/ha Postemergence
[19] = post-emergence, 125 g ai/ha Postemergence
[20] = pre-emergence, 8 g ai/ha Preemergence
[21] = pre-emergence, 16 g ai/ha Preemergence
[22] = pre-emergence, 31 g ai/ha Preemergence
[23] = pre-emergence, 125 g ai/ha Preemergence

FC(F)c1cc(-c2ccccc2Oc2ncc(Br)cn2)no1 [Compound 62, 5-bromo-2-[2-[5-(difluoromethyl)-3-isoxazolyl]phenoxy]pyrimidine]
20%: pest or weed control at 31 g/ha (kochia (Kochia scoparia); 31 g ai/ha, Preemergence)
65%: pest or weed control at 62 g/ha ([6]; 62 g ai/ha Preemergence)
40%: pest or weed control at 8 g/ha [5, 15] | pest or weed control at 16 g/ha [5, 16]
90%: pest or weed control at 500 g/ha [1, 13] | pest or weed control at 125 g/ha [2, 12] | pest or weed control at 500 g/ha [2, 14] | pest or weed control at 125 g/ha [3, 14]
60%: pest or weed control at 125 g/ha [2, 14] | pest or weed control at 125 g/ha [4, 19]
85: Plant response rating, Waterhemp_RES1 ([10]; 16 g ai/ha Postemergence)
0%: pest or weed control at 8 g/ha [4, 15] | pest or weed control at 16 g/ha [4, 16] | pest or weed control at 8 g/ha [4, 20] | pest or weed control at 16 g/ha [4, 21] | pest or weed control at 31 g/ha [4, 22] | pest or weed control at 8 g/ha [5, 20] | pest or weed control at 16 g/ha [5, 21] | pest or weed control at 31 g/ha [5, 22] | pest or weed control at 62 g/ha ([5]; pre-emergence, 62 g ai/ha Preemergence) | pest or weed control at 125 g/ha [5, 23] | pest or weed control at 8 g/ha ([6]; 8 g ai/ha Preemergence) | pest or weed control at 8 g/ha ([7]; 8 g ai/ha Preemergence) | pest or weed control at 16 g/ha ([7]; 16 g ai/ha Preemergence) | pest or weed control at 8 g/ha ([8]; 8 g ai/ha Preemergence) | pest or weed control at 16 g/ha ([8]; 16 g ai/ha Preemergence) | pest or weed control at 31 g/ha ([8]; 31 g ai/ha Preemergence) | pest or weed control at 62 g/ha ([8]; Preemergence) | pest or weed control at 8 g/ha ([9]; 8 g ai/ha Preemergence) | pest or weed control at 16 g/ha ([9]; 16 g ai/ha Preemergence)
50%: pest or weed control at 62 g/ha [5, 18] | pest or weed control at 125 g/ha ([8]; 125 g ai/ha Preemergence)
5%: pest or weed control at 31 g/ha [4, 17]
70%: pest or weed control at 125 g/ha [1, 12] | pest or weed control at 62 g/ha ([7]; 62 g ai/ha Preemergence) | pest or weed control at 31 g/ha ([9]; 31 g ai/ha Preemergence)
25%: pest or weed control at 31 g/ha ([7]; 31 g ai/ha Preemergence)
100%: pest or weed control at 125 g/ha [1, 14] | pest or weed control at 500 g/ha [1, 14] | pest or weed control at 500 g/ha [2, 13] | pest or weed control at 125 g/ha [3, 12] | pest or weed control at 500 g/ha [3, 13] | pest or weed control at 500 g/ha [3, 14] | pest or weed control at 125 g/ha [4, 23] | pest or weed control at 125 g/ha ([9]; 125 g ai/ha Preemergence)
100: Plant response rating, Waterhemp_RES1 ([10]; 31 g ai/ha Postemergence) | Plant response rating, Waterhemp_RES1 ([10]; 62 g ai/ha Postemergence) | Plant response rating, Waterhemp_RES1 ([10]; 125 g ai/ha Postemergence) | Plant response rating, Waterhemp_RES2 ([11]; 31 g ai/ha Postemergence) | Plant response rating, Waterhemp_RES2 ([11]; 62 g ai/ha Postemergence) | Plant response rating, Waterhemp_RES2 ([11]; 125 g ai/ha Postemergence)
35%: pest or weed control at 31 g/ha [5, 17] | pest or weed control at 31 g/ha ([6]; 31 g ai/ha Preemergence) | pest or weed control at 62 g/ha (kochia (Kochia scoparia); Preemergence)
95%: pest or weed control at 62 g/ha ([4]; pre-emergence, Preemergence) | pest or weed control at 125 g/ha (kochia (Kochia scoparia); 125 g ai/ha, Preemergence)
75%: pest or weed control at 125 g/ha [5, 19] | pest or weed control at 125 g/ha ([6]; 125 g ai/ha Preemergence)
15%: pest or weed control at 16 g/ha ([6]; 16 g ai/ha Preemergence)
10%: pest or weed control at 62 g/ha [4, 18] | pest or weed control at 8 g/ha (kochia (Kochia scoparia); 8 g ai/ha Preemergence)
98%: pest or weed control at 125 g/ha ([7]; 125 g ai/ha Preemergence) | pest or weed control at 62 g/ha ([9]; Preemergence)
80: Plant response rating, Waterhemp_RES1 ([10]; 8 g ai/ha Postemergence) | Plant response rating, Waterhemp_RES2 ([11]; 8 g ai/ha Postemergence) | Plant response rating, Waterhemp_RES2 ([11]; 16 g ai/ha Postemergence)
